Counter-ions that a name gives are not always drawn.
Tests used:
[1] = Acute lethality after intraperitoneal dosage (LD50); format: in vivo
Description: In using the compounds of this invention to inhibit prolactin secretion or to treat Parkinson's syndrome or for other pharmacologic action, a compound according to Formula I above in which R^2 is C1 -C3 alkyl or allyl and R^1 is H or C1 -C3 alkyl, or a salt thereof with a pharmaceutically-acceptable acid, is administered to a subject suffering from Parkinsonism or in need of having this prolactin level reduced in an effective amount to treat Parkinsonism or to reduce prolactin. Oral administration is preferred. If parenteral administration is used, the injection is preferably by the subcutaneous route using an appropriate pharmaceutical formulation. […] In particular, with intravenous or intramuscular administration, a water soluble pharmaceutically-acceptable salt is employed. For oral administration, the compound either as the free base or in the form of a salt thereof can also be mixed with standard pharmaceutical excipients and loaded into empty telescoping gelatin capsules or pressed into tablets. The oral dosage range is from about […]. to 10 mg./kg. of mammalian weight and the parenteral dose range from about 0.0025 to 2.5 mg./kg.

[2] = system: prolactin; assay: Inhibition of prolactin secretion in reserpine-treated male rats; format: in vivo, rat (Sprague-Dawley); conditions: serum one hour after treatment, reserpine pretreated male rats
Description: The compounds of this invention are also useful as prolactin inhibitors and as such they can be employed in the treatment of inappropriate lactation such as postpartum lactation and galactorrhea.
Adult male rats of the Sprague-Dawley strain weighing about 200 g. were housed in an air-conditioned room with controlled lighting (lights on […].) and fed lab chow and water ad libitum. Each rat received an intraperitoneal injection of 2.0 mg. of reserpine in aqueous suspension 18 hours before administration of the test drug. The purpose of the reserpine was to keep prolactin levels uniformly elevated. The compounds under test were dissolved in 10 percent ethanol, and were injected intraperitoneally at doses of 0.5 and 5 mg/kg. Each compound was administered at each dose level to a group of 10 rats, and a control group of 10 intact males received an equivalent amount of 10 percent ethanol. One hour after treatment, all rats were killed by decapitation, and 150 μl aliquots of serum were assayed for prolactin.
The difference between the prolactin level of the treated rats and prolactin level of the control rats, divided by the prolactin level of the control rats gives the percent inhibition of prolactin secretion attributable to the compounds of this invention. In the table, column 1 gives the name of the compound; and columns 2 and 3, the percent prolactin inhibition at the 0.5 and 5 mg/kg dose levels.

[3] = system: 6-hydroxydopamine-lesioned rats; assay: Rat turning test in 6-hydroxydopamine-lesioned (nigro-neostriatal-lesioned) rats, dopamine agonist activity; format: in vivo; conditions: 1 mg/kg intraperitoneal; for % of Rats Exhibiting Turning Behavior: aqueous solution; for Average Number of Turns/rat: first 15 minutes after end of latency period
Description: In this test, nigro-neostriatal-lesioned rats are employed, as prepared by the procedure of Ungerstedt and Arbuthnott, Brain Res, 24, 485 (1970). A compound having dopamine agonist activity causes the rats to turn in circles contralateral to the side of the lesion. After a latency period, which varies from compound to compound, the number of turns is counted over a 15-minute period.
The compounds were dissolved in water and the aqueous solution injected into the rat by the intraperitoneal route at a dose level of 1 mg/kg.

Compound | LD50 ([1]; in vivo, ip, intraperitoneal, indicated from lethality at the doses tested) | deaths ([1]; intraperitoneal dosages of 10-30 mg./kg.) | lethality ([1]; intraperitoneal dosages of 100-300 mg./kg.) | Percent Prolactin Inhibition at Given Dose ([2]; 0.5 mg/kg intraperitoneal) | Percent Prolactin Inhibition at Given Dose ([2]; 5 mg/kg intraperitoneal) | % of Rats Exhibiting Turning Behavior [3] | Average Number of Turns/rat [3]
CCCN1CCC[C@@H]2Cc3c[nH]cc3C[C@H]21 (relative stereo) | 30 to 100 mg/kg | no deaths | fatal | – | – | – | –
CN1CCC[C@@H]2Cc3c[nH]cc3C[C@H]21 (relative stereo) [trans-dl-5-Methyl-4,4a,5,6,7,8,8a,9-octahydro-2H-pyrrolo[3,4-g]quinoline maleate] | – | – | – | 23% | 90% | 33% | 20 Turns/rat
CCCN1CCC[C@@H]2Cc3c[nH]cc3C[C@H]21 (relative stereo) [trans-dl-5-n-Propyl-4,4a,5,6,7,8,8a,9-octahydro-2H-pyrrolo-[3,4-g]quinoline maleate] | – | – | – | – | 95% | 100% | 169 Turns/rat
CCCN1C[C@H](CO)C[C@@H]2Cc3c[nH]cc3C[C@H]21 (relative stereo) [trans-dl-5-n-propyl-7-hydroxymethyl-4,4a,5,6,7,8,8a,9-octahydropyrrolo[3,4-g]quinoline] | – | – | – | – | – | 100% | 109 Turns/rat

Reference: patent US4235909A, “Octahydro-2H-pyrrolo[3,4-g]quinolines” (Eli Lilly and Company, priority 1979, dated 1980)
